Patent US8937038B2, “Composition containing peptide ligand that bonds with CXCR2 for treating infective and inflammatory diseases” (priority 2010, dated 2015)
Where no end group is shown, it is not given here. The star is where a group is joined. Palmitoyl = CCCCCCCCCCCCCCCC(=O)*

Tests used:
mouse neutrophils = test: H2O2 production in mouse neutrophils; assay type: cell-based; details: neutrophils pretreated with SB225002 30 minutes, then Ac-PGP 20 μM; FIG. 13
Method: Mouse neutrophils were separated from peripheral blood using a Histopaque-1077 solution (Sigma) (Bae Y S et al. 2001 Blood. 97: 2854-2862). The neutrophils separated from normal mice were stimulated with various concentrations of Ac-PGP for 10 minutes in the presence of cytochalasin B (5 μM). To identify the role of mCXCR2, the neutrophils were pre-incubated in various concentrations of SB225002 or a vehicle (DMSO) for 30 minutes in a stationary environment, and Ac-PGP (20 μM) was added, and incubated for 10 minutes. H2O2 in a supernatant was measured using a H2O2 measurement kit (Molecular probe).
A death rate by CLP is correlated with the number of bacterial colonies in a peritoneal fluid. Therefore, an effect of the Ac-PGP on removal of bacteria in a peritoneal fluid was examined. […] In vitro disinfection activity of the Ac-PGP was examined using neutrophils derived from a mouse. The mouse neutrophils were kept for an hour to phagocytize E. coli, and then stimulated with various concentrations of Ac-PGP (0.1 to 100 nM) for 20 minutes. […] A reactive oxygen species such as hydrogen peroxide was known as an important molecule participating in the disinfection activity. Therefore, an effect of Ac-PGP on production of hydrogen peroxide in the mouse neutrophils was examined. […]

human neutrophils = test: Cytokine production by LPS-stimulated human neutrophils; assay type: cell-based; details: human neutrophils stimulated with LPS
Source text: (§1) All kinds of protocols used in human beings were approved by the Institutional Review Board (IRB) at Dong-A University Hospital, and prior consents were obtained from all blood donors. Peripheral blood was collected from healthy donors, and human peripheral monocytes were separated using a Histopaque-1077 gradient. Neutrophils were separated through methods such as dextran precipitation of red blood cell, hypotonic lysis, and usage of lymphocyte isolation medium gradient, as known in the related art (Bae, Y. S. et al. Blood 97, 2854-2862(2001)). The separated human leukocytes were used immediately.
(§2) Next, an effect of the Ac-PGP on production of cytokines by human neutrophils and PBMCs was examined. […] A human CXCR2 chemokine agonist CXCL8 had few effects on production of TNF-α or IFN-γ stimulated with LPS (FIG. 28 to FIG. 31). Therefore, the Ac-PGP could improve both antiseptic activities in leukocytes derived from human beings and mice.

PBMCs = test: Cytokine production by LPS-stimulated human PBMCs; assay type: cell-based; details: human PBMCs stimulated with LPS
Source text: as §1, §2

[1] = system: cecal ligation and puncture (CLP)-septic mice; details: Kuliopulos et al.; cited from earlier work
mouse splenocytes = test: Cytokine release from LPS-stimulated mouse splenocytes (ELISA); assay type: cell-based; details: LPS 100 ng/ml
Method: Mouse splenocytes were positioned on an RPMI 1640 medium including 5% FBS in a 96-well plate, and maintained at 37° C. in a 5% CO2 incubator. Thereafter, the splenocytes were stationarily incubated with LPS (100 ng/ml) for 24 hours in the presence or absence of Ac-PGP. After 30 minutes, LPS was added to the cells and collected a cell-free supernatant, and then the supernatant was centrifuged, and TNF-α, IL-6 and IFN-γ were measured using ELISA (BD Biosciences Pharmingen). In regards to the effect of IFN-γ on production of pro-inflammatory cytokines induced by LPS, 5×10^5 cells/ml of the mouse splenocytes were stimulated with 100 ng/ml of LPS in the presence or absence IFN-γ (R&D) (at various concentrations of 1, 10, 100 and 1,000 IU/ml). Amounts of TNF-α and IL-6 were measured 20 hours after stationary incubation using ELISA (BD Biosciences Pharmingen).
An effect of the Ac-PGP on a pro-inflammatory cytokine in a peritoneal fluid by CLP was determined from 4 to 72 hours after the CLP. The CLP induced a remarkable increase in levels of pro-inflammatory cytokines (TNF-α, IL-1β and IL-6) within 24 hours (FIGS. 14 to 16). Injection of the Ac-PGP in a sepsis model by the CLP induced a remarkable change in levels of the cytokines. […] To evaluate an effect of the Ac-PGP on production of the pro-inflammatory cytokines by the LPS, in vitro production of TNF-α and IL-6 by the mouse splenocytes was evaluated. Direct release of the TNF-α and IL-6 from the mouse splenocytes by the LPS was suppressed by in vitro treatment with the Ac-PGP (FIGS. 17 and 18).
Since it was confirmed that the administration of the Ac-PGP improved in vivo production of IFN-γ, a direct effect of the Ac-PGP on production of IFN-γ by splenocytes was examined. […] Also, an effect of IFN-γ on production of the pro-inflammatory cytokines was also examined.

## O=C(Nc1ccc([N+](=O)[O-])cc1O)Nc1ccccc1Br [SB225002, reference compound]
Mouse neutrophils
  production of hydrogen peroxide by the Ac-PGP: completely suppressed

## CXCL8: human CXCR2 chemokine agonist
Human neutrophils; FIG. 28
  production of TNF-α: few effects
Human neutrophils; FIG. 30
  production of IFN-γ: few effects
PBMCs; FIG. 29
  production of TNF-α: few effects
PBMCs; FIG. 31
  production of IFN-γ: few effects

## pal-RTLFKAHMGQKHR (Palmitoyl-RTLFKAHMGQKHR) [x1/2pal-3]
[1]
  survival rate: remarkable increase in survival rate

B1: IFN-γ: type 1 cytokine (R&D) added to mouse splenocytes at 1 to 1,000 IU/ml (protein, UniProt P01580 23-155, looked up)
Interferon gamma: HGTVIESLESLNNYFNSSGIDVEEKSLFLDIWRNWQKDGDMKILQSQIISFYLRLFEVLKDNQAISNNISVIESHLITTFFSNSKAKKDAFMSIAKFEVNNPQVQRQAFNELIRVVHQLLPESSLRKRKRSRC
Mouse splenocytes; 5×10^5 cells/ml, IFN-γ 1, 10, 100 and 1,000 IU/ml, 20 hours, FIG. 25
  production of TNF-α by LPS: relieved production
Mouse splenocytes; 5×10^5 cells/ml, IFN-γ 1, 10, 100 and 1,000 IU/ml, 20 hours, FIG. 26
  production of IL-6 by LPS: relieved production

B2: KC: counterpart of mouse IL-8; mouse chemokine activating CXCR2 (protein, UniProt P12850 25-96, looked up)
Growth-regulated alpha protein: APIANELRCQCLQTMAGIHLKNIQSLKVLPSGPHCTQTEVIATLKNGREACLDPEAPLVQKIVQKMLKGVPK
Mouse splenocytes; 24 hours, FIG. 17
  release of TNF-α by LPS: could not suppress
Mouse splenocytes; 24 hours, FIG. 18
  release of IL-6 by LPS: could not suppress
